Measured values: patent publication US11759455B2, “Substituted 1H-imidazo[4,5-b]pyridin-2(3H)-ones and their use as GLUN2B receptor modulators” (JANSSEN PHARMACEUTICA NV, priority 2016, dated 2023)

The molecules below were run against T1, human GluN1/GluN2B NMDA receptors (Homo sapiens, UniProt Q13224) (assay: Cell-based calcium flux (FLIPR) assay on cloned human NR1/NR2B ion channels expressed in mammalian cells (standard and HTS buffer variants)). Settings: HTS assay buffer (1.5 mM MgCl2 in dye loading buffer; 150 mM NaCl, 3 mM KCl in assay buffer), human GluN1/GluN2B, read-out: NR2B IC50 (μM) HTS assay.
T1 construct: expressed in transfected cells
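Further: stable Tet-On inducible cell line, Ca2+ influx triggered by glutamate at about EC40 plus 10 µM glycine, fluorescent dye read-out over 5 min, normalized to control wells.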

T1 sequence (Q13224 27-1484, other chains not shown): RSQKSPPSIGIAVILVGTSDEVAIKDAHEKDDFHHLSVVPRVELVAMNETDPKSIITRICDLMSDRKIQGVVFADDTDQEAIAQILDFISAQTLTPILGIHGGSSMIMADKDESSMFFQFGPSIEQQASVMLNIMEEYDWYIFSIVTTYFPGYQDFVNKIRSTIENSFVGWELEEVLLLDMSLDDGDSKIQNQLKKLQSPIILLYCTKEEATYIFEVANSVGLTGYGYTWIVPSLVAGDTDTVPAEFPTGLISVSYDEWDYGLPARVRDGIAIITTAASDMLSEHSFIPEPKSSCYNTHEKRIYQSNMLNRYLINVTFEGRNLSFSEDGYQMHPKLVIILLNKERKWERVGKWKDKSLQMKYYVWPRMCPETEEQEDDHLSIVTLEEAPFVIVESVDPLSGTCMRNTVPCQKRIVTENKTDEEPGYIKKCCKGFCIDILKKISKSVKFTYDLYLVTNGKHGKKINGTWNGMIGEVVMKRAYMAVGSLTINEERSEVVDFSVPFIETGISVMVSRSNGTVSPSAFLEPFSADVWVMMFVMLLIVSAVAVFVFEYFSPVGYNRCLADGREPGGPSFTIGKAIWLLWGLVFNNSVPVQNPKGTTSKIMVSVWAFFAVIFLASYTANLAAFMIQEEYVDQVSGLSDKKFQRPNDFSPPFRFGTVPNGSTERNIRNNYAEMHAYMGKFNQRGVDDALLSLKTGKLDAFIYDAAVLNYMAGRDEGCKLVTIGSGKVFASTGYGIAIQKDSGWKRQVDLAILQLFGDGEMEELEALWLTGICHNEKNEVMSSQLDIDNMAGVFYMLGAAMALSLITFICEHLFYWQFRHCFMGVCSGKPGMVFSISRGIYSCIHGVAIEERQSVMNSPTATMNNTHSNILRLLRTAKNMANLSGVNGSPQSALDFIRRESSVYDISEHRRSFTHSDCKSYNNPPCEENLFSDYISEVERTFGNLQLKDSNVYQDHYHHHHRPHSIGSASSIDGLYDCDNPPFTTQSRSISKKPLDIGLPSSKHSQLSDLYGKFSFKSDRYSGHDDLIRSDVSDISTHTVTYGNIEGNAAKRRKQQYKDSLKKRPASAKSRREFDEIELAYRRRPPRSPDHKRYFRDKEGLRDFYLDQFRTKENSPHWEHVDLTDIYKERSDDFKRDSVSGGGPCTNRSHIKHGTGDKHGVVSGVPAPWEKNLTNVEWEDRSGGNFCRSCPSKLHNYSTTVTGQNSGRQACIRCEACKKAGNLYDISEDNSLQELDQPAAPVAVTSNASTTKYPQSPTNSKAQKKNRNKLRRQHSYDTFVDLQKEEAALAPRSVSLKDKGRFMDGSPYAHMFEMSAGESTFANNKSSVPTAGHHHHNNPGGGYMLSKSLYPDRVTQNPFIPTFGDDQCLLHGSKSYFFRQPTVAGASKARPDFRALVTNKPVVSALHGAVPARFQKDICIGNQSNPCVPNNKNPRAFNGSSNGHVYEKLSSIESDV

| Structure (SMILES) | IC50 [µM] |
| --- | --- |
| CCOc1ccc(F)cc1-c1cnc2[nH]c(=O)n(CC(=O)NCCOC)c2c1 [Example 443, 2-[6-(2-Ethoxy-5-fluoro-phenyl)-2-oxo-3H-imidazo[4,5-b]pyridin-1-yl]-N-(2-methoxyethyl)acetamide] | 1.32 |
| COCCNC(=O)Cn1c(=O)[nH]c2ncc(-c3ccc(OC)cc3)cc21 [Example 444, N-(2-Methoxyethyl)-2-[6-(4-methoxyphenyl)-2-oxo-3H-imidazo[4,5-b]pyridin-1-yl]acetamide] | 0.747 |
| COCCNC(=O)Cn1c(=O)[nH]c2ncc(-c3cccnc3)cc21 [Example 445, N-(2-Methoxyethyl)-2-[2-oxo-6-(3-pyridyl)-3H-imidazo[4,5-b]pyridin-1-yl]acetamide] | > 29 |
| CCOc1cccc(-c2cnc3[nH]c(=O)n(CC(=O)NC4CC4)c3c2)c1 [Example 449, N-Cyclopropyl-2-[6-(3-ethoxyphenyl)-2-oxo-3H-imidazo[4,5-b]pyridin-1-yl]acetamide] | 0.638 |
| COc1cc(F)ccc1-c1cnc2[nH]c(=O)n(CC(=O)NC3CC3)c2c1 [Example 452, N-Cyclopropyl-2-[6-(4-fluoro-2-methoxy-phenyl)-2-oxo-3H-imidazo[4,5-b]pyridin-1-yl]acetamide] | 0.071 |
| O=C(Cn1c(=O)[nH]c2ncc(-c3ccc(Cl)cc3)cc21)NC1CC1 [Example 453, 2-[6-(4-Chlorophenyl)-2-oxo-3H-imidazo[4,5-b]pyridin-1-yl]-N-cyclopropyl-acetamide] | 0.1 |
| COc1ccc(-c2cnc3[nH]c(=O)n(CC(=O)NC4CC4)c3c2)c(OC)c1 [Example 454, N-Cyclopropyl-2-[6-(2,4-dimethoxyphenyl)-2-oxo-3H-imidazo[4,5-b]pyridin-1-yl]acetamide] | 1.94 |
| O=C(Cn1c(=O)[nH]c2ncc(-c3ccc(Cl)cc3)cc21)c1cccs1 [Example 459, 6-(4-Chlorophenyl)-1-[2-oxo-2-(2-thienyl)ethyl]-3H-imidazo[4,5-b]pyridin-2-one] | 1.42 |
| CCOc1ccc(F)cc1-c1cnc2[nH]c(=O)n(CC(=O)c3cccs3)c2c1 [Example 460, 6-(2-Ethoxy-5-fluoro-phenyl)-1-[2-oxo-2-(2-thienyl)ethyl]-3H-imidazo[4,5-b]pyridin-2-one] | 1.77 |
| CCOc1cccc(-c2cnc3[nH]c(=O)n(CC(=O)c4cccs4)c3c2)c1 [Example 463, 6-(3-Ethoxyphenyl)-1-[2-oxo-2-(2-thienyl)ethyl]-3H-imidazo[4,5-b]pyridin-2-one] | 0.36 |
| COc1ccc(-c2cnc3[nH]c(=O)n(Cc4ccc(C#N)cc4)c3c2)cc1 [Example 476, 4-[[6-(4-Methoxyphenyl)-2-oxo-3H-imidazo[4,5-b]pyridin-1-yl]methyl]benzonitrile] | 4.53 |
| COc1ccc(-c2cnc3[nH]c(=O)n(Cc4cccc(C#N)c4)c3c2)cc1 [Example 477, 3-[[6-(4-Methoxyphenyl)-2-oxo-3H-imidazo[4,5-b]pyridin-1-yl]methyl]benzonitrile] | 3.16 |
| COc1cc(F)ccc1-c1cnc2[nH]c(=O)n(Cc3cccc(C#N)c3)c2c1 [Example 478, 3-[[6-(4-Fluoro-2-methoxy-phenyl)-2-oxo-3H-imidazo[4,5-b]pyridin-1-yl]methyl]benzonitrile] | 3.04 |
| N#Cc1cccc(Cn2c(=O)[nH]c3ncc(-c4ccc(F)c(Cl)c4)cc32)c1 [Example 480, 3-[[6-(3-Chloro-4-fluoro-phenyl)-2-oxo-3H-imidazo[4,5-b]pyridin-1-yl]methyl]benzonitrile] | 4.22 |
| N#Cc1ccccc1Cn1c(=O)[nH]c2ncc(-c3ccc(Cl)cc3)cc21 [Example 482, 2-[[6-(4-Chlorophenyl)-2-oxo-3H-imidazo[4,5-b]pyridin-1-yl]methyl]benzonitrile] | 1.41 |

Other lines, results leading:

| IC50 [µM] | Structure (SMILES) |
| --- | --- |
| 1.76 | COc1cccc(-c2cnc3[nH]c(=O)n(CC(=O)NC4CC4)c3c2)c1 [Example 450, N-Cyclopropyl-2-[6-(3-methoxyphenyl)-2-oxo-3H-imidazo[4,5-b]pyridin-1-yl]acetamide] |
| 1.03 | COc1ccc(-c2cnc3[nH]c(=O)n(CC(=O)NC4CC4)c3c2)cc1C [Example 451, N-Cyclopropyl-2-[6-(4-methoxy-3-methyl-phenyl)-2-oxo-3H-imidazo[4,5-b]pyridin-1-yl]acetamide] |
| 14.4 | COc1ccc(-c2cnc3[nH]c(=O)n(CC4CC4)c3c2)c(OC)c1 [Example 465, 1-(Cyclopropylmethyl)-6-(2,4-dimethoxyphenyl)-3H-imidazo[4,5-b]pyridin-2-one] |
| 15.8 | CCOc1ccc(F)cc1-c1cnc2[nH]c(=O)n(CC3CC3)c2c1 [Example 466, 1-(Cyclopropylmethyl)-6-(2-ethoxy-5-fluoro-phenyl)-3H-imidazo[4,5-b]pyridin-2-one] |
| 0.305 | COc1cc(F)ccc1-c1cnc2[nH]c(=O)n(CC3CC3)c2c1 [Example 467, 1-(Cyclopropylmethyl)-6-(4-fluoro-2-methoxy-phenyl)-3H-imidazo[4,5-b]pyridin-2-one] |
| 4.17 | COc1ccc(-c2cnc3[nH]c(=O)n(CC4CC4)c3c2)cc1C [Example 468, 1-(Cyclopropylmethyl)-6-(4-methoxy-3-methyl-phenyl)-3H-imidazo[4,5-b]pyridin-2-one] |
| 0.944 | COc1ccc(-c2cnc3[nH]c(=O)n(CC4CC4)c3c2)cc1F [Example 469, 1-(Cyclopropylmethyl)-6-(3-fluoro-4-methoxy-phenyl)-3H-imidazo[4,5-b]pyridin-2-one] |
| 0.509 | O=c1[nH]c2ncc(-c3cc(F)cc(F)c3)cc2n1CC1CC1 [Example 470, 1-(Cyclopropylmethyl)-6-(3,5-difluorophenyl)-3H-imidazo[4,5-b]pyridin-2-one] |
| 15.7 | CN(C)c1cccc(-c2cnc3[nH]c(=O)n(CC4CC4)c3c2)c1 [Example 473, 1-(Cyclopropylmethyl)-6-[3-(dimethylamino)phenyl]-3H-imidazo[4,5-b]pyridin-2-one] |
| 0.157 | COc1cccc(-c2cnc3[nH]c(=O)n(CC4CCCO4)c3c2)c1 (stereo not shown) [Example 475, 6-(3-Methoxyphenyl)-1-(tetrahydrofuran-2-ylmethyl)-3H-imidazo[4,5-b]pyridin-2-one] |

Same assay, conditions: standard assay buffer (0.5 mM MgCl2 in dye loading buffer; 137 mM NaCl, 4 mM KCl in assay buffer), human GluN1/GluN2B, read-out: NR2B IC50 (μM) standard assay

| Structure (SMILES) | IC50 [µM] |
| --- | --- |
| COCCNC(=O)Cn1c(=O)[nH]c2ncc(-c3ccc(F)cc3OC)cc21 [Example 446, 2-[6-(4-Fluoro-2-methoxy-phenyl)-2-oxo-3H-imidazo[4,5-b]pyridin-1-yl]-N-(2-methoxyethyl)acetamide] | 0.204 |
| O=C(Cn1c(=O)[nH]c2ncc(-c3cc(F)cc(F)c3)cc21)NC1CC1 [Example 447, N-Cyclopropyl-2-[6-(3,5-difluorophenyl)-2-oxo-3H-imidazo[4,5-b]pyridin-1-yl]acetamide] | 0.184 |
| O=C(Cn1c(=O)[nH]c2ncc(-c3ccc(F)c(Cl)c3)cc21)NC1CC1 [Example 448, 2-[6-(3-Chloro-4-fluoro-phenyl)-2-oxo-3H-imidazo[4,5-b]pyridin-1-yl]-N-cyclopropyl-acetamide] | 0.008 |
| CCOc1ccccc1-c1cnc2[nH]c(=O)n(CC(=O)NC3CC3)c2c1 [Example 456, N-Cyclopropyl-2-[6-(2-ethoxyphenyl)-2-oxo-3H-imidazo[4,5-1D]pyridin-1-yl]acetamide] | 0.146 |
| COc1ccc(-c2cnc3[nH]c(=O)n(CC(=O)c4cccs4)c3c2)cc1F [Example 457, 6-(3-Fluoro-4-methoxy-phenyl)-1-[2-oxo-2-(2-thienyl)ethyl]-3H-imidazo[4,5-b]pyridin-2-one] | 0.33 |
| CCOc1ccccc1-c1cnc2[nH]c(=O)n(CC(=O)c3cccs3)c2c1 [Example 458, 6-(2-Ethoxyphenyl)-1-[2-oxo-2-(2-thienyl)ethyl]-3H-imidazo[4,5-b]pyridin-2-one] | 0.135 |
| COc1ccc(-c2cnc3[nH]c(=O)n(CC(=O)c4cccs4)c3c2)cc1 [Example 461, 6-(4-Methoxyphenyl)-1-[2-oxo-2-(2-thienyl)ethyl]-3H-imidazo[4,5-b]pyridin-2-one] | 0.054 |
| COc1cc(F)ccc1-c1cnc2[nH]c(=O)n(CC(=O)c3cccs3)c2c1 [Example 462, 6-(4-Fluoro-2-methoxy-phenyl)-1-[2-oxo-2-(2-thienyl)ethyl]-3H-imidazo[4,5-b]pyridin-2-one] | 0.255 |
| O=C(Cn1c(=O)[nH]c2ncc(-c3ccc(F)c(Cl)c3)cc21)c1cccs1 [Example 464, 6-(3-Chloro-4-fluoro-phenyl)-1-[2-oxo-2-(2-thienyl)ethyl]-3H-imidazo[4,5-b]pyridin-2-one] | 0.359 |
| Cc1cc(F)ccc1-c1cnc2[nH]c(=O)n(Cc3cccc(C#N)c3)c2c1 [Example 479, 3-[[6-(4-Fluoro-2-methyl-phenyl)-2-oxo-3H-imidazo[4,5-b]pyridin-1-yl]methyl]benzonitrile] | 0.778 |
| COc1cccc(F)c1-c1cnc2[nH]c(=O)n(Cc3ccccc3C#N)c2c1 [Example 481, 2-[[6-(2-Fluoro-6-methoxy-phenyl)-2-oxo-3H-imidazo[4,5-b]pyridin-1-yl]methyl]benzonitrile] | 2.25 |

Results, then the molecule that gave them:

| IC50 [µM] | Structure (SMILES) |
| --- | --- |
| 0.416 | COc1cccc(F)c1-c1cnc2[nH]c(=O)n(CC(=O)NC3CC3)c2c1 [Example 455, N-Cyclopropyl-2-[6-(2-fluoro-6-methoxy-phenyl)-2-oxo-3H-imidazo[4,5-b]pyridin-1-yl]acetamide] |
| 1.8 | COc1ccc(-c2cnc3[nH]c(=O)n(CC4CC4)c3c2)cc1 [Example 471, 1-(Cyclopropylmethyl)-6-(4-methoxyphenyl)-3H-imidazo[4,5-b]pyridin-2-one] |
| 1.56 | O=c1[nH]c2ncc(-c3cccs3)cc2n1CC1CC1 [Example 472, 1-(Cyclopropylmethyl)-6-(2-thienyl)-3H-imidazo[4,5-b]pyridin-2-one] |
| 3.57 | Cc1cc(C)cc(-c2cnc3[nH]c(=O)n(CC4CC4)c3c2)c1 [Example 474, 1-(Cyclopropylmethyl)-6-(3,5-dimethylphenyl)-3H-imidazo[4,5-b]pyridin-2-one] |
